Laboratory results from US6914049B2, “IGF-binding protein-derived peptide or small molecule” (Bioexpertise, LLC, priority 2001, dated 2005).
One block for each molecule: values may come before it. Where no end group is shown, it is not given here.

Experiments:
HEK 293 cells [1] = assay: Co-apoptotic activity of MBD peptides and paclitaxel, caspase-3; type: cell-based, human; conditions: normalized to MBD2 = 100 on a molar basis; peptide 50 ng/ml, 0.3 ng/ml paclitaxel, 8 hours
Method: Peptides (50 ng/ml) were added to 80% confluent HEK 293 cells grown in DMEM supplemented with 0.3 ng/ml paclitaxel concurrent with peptide. Caspase-3 activity was measured in cell extracts 8 hours post-addition.
(§1) Apoptotic activity is expressed in arbitrary caspase-3 units normalized to MBD2 on a molar basis (MBD2 activity was defined as 100 units (avg. of 3 experiments); “nd” indicates “not done”; “ps” indicates phosphoserine. Metal-binding is expressed as a percentage of loaded peptide bound to a Ni-NTA resin; approximately 1-1.5 mg of peptide were loaded on the column. Cell uptake was determined using genetic fusions to GFP as described in Example 9.

[2] = Metal-binding of peptides to Ni-NTA resin; conditions: percentage of loaded peptide bound to Ni-NTA resin; 1-1.5 mg loaded
Method: as §1

HEK293 cells [3] = assay: Caspase-3 apoptosis assay on nutritionally stressed HEK293 cells (Examples 1-2); type: cell-based, human
Method: Human embryonal kidney 293 (HEK293) cells were grown in Dulbecco's Modified Eagle Medium (D-MEM) supplemented with fetal calf serum at 2%, 4%, 6%, or 8%. When the cells reached 80-85% confluency (cell titer approximately 2.1×10^6 cells per plate), 5 μg of IGFBP-3 or buffer control was added to each plate. The cells were incubated at 37° C. overnight. The next day the medium was removed and the cells were rinsed with trypsin-EDTA (0.25% trypsin, 1 mM EDTA) plus 1× phosphate buffered saline. The cells were centrifuged and the supernatant was removed. ApoAlert caspase-3 assay kit from Clontech Inc (Palo Alto, Calif.) was used to measure apoptosis. The cells were resuspended in 50 μl of chilled cell lysis buffer and incubated on ice for 10 minutes. The resulting cell, lysates were centrifuged at 14000 rpm in a Beckman microcentrifuge for 3 minutes at 4 C. The supernatant was transferred to new tubes and 50 μl of 2× reaction buffer/DTT plus 5 μl of 1 mM caspase-3 substrate was added to each tube. After incubating at 37 C. for 1 hour in a water bath, the samples were read at 405 nm in a microplate reader.
Peptides derived from IGFBP-3 were tested for pro-apoptotic activity essentially as described in Example 1.
The peptides tested are described in Table 1 (peptides marked with an asterisk include a hexahistidine tag).

[4] = Binding of short peptides to Ni-His-Bind column, imidazole elution
Method: We further tested the ability of IGFBP-3-derived sub-domains and peptides to bind metal. As shown in Example 5, below, a defined fragment of IGFBP-3 generated in vivo can be captured on IMAC. Two short peptides were passed through a Ni-His-Bind column:
Both peptides bound specifically to the column. Peptide 1 eluted with 60 mM imidazole, whereas higher concentrations of imidazole (1M) were necessary to elute Peptide 2.

HEK293 cells [5] = assay: Co-apoptotic activity with paclitaxel in presence of plasma proteins; type: cell-based, human; conditions: 50 ng/ml, 0.3 ng/ml paclitaxel, eight hours
Method: Co-apoptotic activity of MBD peptides or IGFBP-3 with paclitaxel was tested in the presence or absence of two plasma proteins; fibronectin and fibrinogen. MBD peptides or IGFBP-3, (50 ng/ml), 0.3 ng/ml paclitaxel, and plasma proteins (200 ng/ml) were added to 80% confluent HEK293 cells grown in DMEM essentially as described in Example 8. Caspase-3 was measured after an eight hour incubation.
Apoptotic activity was calculated in arbitrary caspase-3 units normalized to MBD2 (MBD2 activity was defined as 100 units) Results are summarized in Table 4 (average of 3 experiments).

HEK 293 cells [6] = assay: IGF-independence of apoptosis stimulation, caspase-3; type: cell-based, human
Method: HEK 293 cells were cultured under stressed conditions (low serum or in the presence of paclitaxel) with and without IGFBP-3 (50 ng/ml) or MBD2 (50 ng/ml). Apoptosis was assayed using the caspase-3 assay as described in Example 1.

HEK 293 cells [7] = assay: Integrin dependence of pro-apoptotic activity, caspase-3; type: cell-based, human; conditions: with paclitaxel; FIG. 12A
Method: HEK 293 cells were cultured as described in Example 10, including paclitaxel. Cells were incubated with MDB2 either alone or in combination with an anti-adhesion protein antibody. Antibodies were against integrin associated protein (LAP), fibronectin (Fn), transferrin receptor (TfnR), alpha 5 integrin, alpha 6 integrin, alpha v integrin, beta 1 integrin, and beta 5 integrin. Caspase-3 activity was assayed as described in Example 1.

[8] = test system: HEK 293 cells transfected with dominant negative inserts; assay: Co-apoptotic activity in cells with blocked signal transduction; type: cell-based, human; conditions: AktDN, PTEN, ILKdn, rafDN inserts; with paclitaxel; FIG. 15
Method: HEK 293 cells were transfected with pUSEamp, or pUSEamp carrying a Akt dominant negative (AktDN), PTEN, ILK dominant negative (ILKdn) or raf dominant negative (rafDN) insert (Upstate Biotechnologies). The cells were cultured as described in Example 10 (including paclitaxel), with or without MBD2.

MA16C cells = assay: Sensitization to low dose doxorubicin, caspase-3; type: cell-based; conditions: doxorubicin 75 ng/ml, FIG. 16A
Method: MA16C cells were cultured in the presence of MDB2 and a low dose of doxorubicin (75 ng/ml). Apoptosis was assayed using the caspase-3 assay as described in Example 1.

MDA-MB-231 cells = assay: Sensitization to low dose paclitaxel, NMP levels; type: cell-based; conditions: paclitaxel 100 ng/ml, 50 ng/ml peptide, FIG. 16B
Method: MDA-MB-231 cells were cultured in the presence of low dose paclitaxel (100 ng/ml) with and without MDB2 (50 ng/ml). Apoptosis was assayed by measuring NMP levels.

[9] = test system: MA-16C mammary adenocarcinoma tumors; assay: MA-16C mammary adenocarcinoma tumor implants; type: in vivo, female C3H mice; conditions: DOX study
Method: Fragments of MA-16C mammary adenocarcinoma tumors were implanted subcutaneously into female C3H mice (8-11 animals per group). The animals were treated with vehicle alone, IGFBP-3 (4 mg/kg/day for 21 days by subcutaneous injection), doxorubicin (2 mg/kg on days 1 and 8 by intravenous injection), or IGFBP-3 plus doxorubicin. A separate study was performed where the animals were treated with vehicle alone, 5-fluorouracil (10 mg/kg on days 1-5 by intraperitoneal injection), or IGFBP-3 plus 5-fluorouracil. Tumor size was measured at day 18, and the mice were sacrificed at day 21, and the implanted tumors were removed for determination of caspase-3 activity (a marker of apoptosis-only performed for DOX groups).

HEK293 cells [10] = assay: Nuclear translocation of biotinylated peptide/streptavidin-HRP conjugate; type: cell-based, human; conditions: approx. 90 Kd conjugate, 20 minutes; FIG. 24
Method: Biotinylated MBD peptides MBD9, MBD20 ([…] (SEQ ID NO: 37): the MBD core 14mer is underlined, and the caveolin consensus binding sequence is bolded) or MBD21 ([…] (SEQ ID NO: 38): the MBD core 14mer is underlined, and the caveolin consensus binding sequence is bolded) were each mixed with streptavidin-horseradish peroxidase conjugate (3-6× molar excess of MBD peptide) and added to HEK293 cells. After 20 minutes, nuclear and cytoplasmic extracts were prepared as described in Example 20 and assayed for peroxidase activity.

HEK293 cells [11] = assay: Nuclear translocation of MBD-GFP32 after endocytosis inhibitors; type: cell-based, human; conditions: inhibitor 10 μg/ml one hour; 500 ng/ml MBD-GFP32, twenty minutes; FIG. 19
Method: HEK293 cells were pre-incubated with inhibitors nystatin (inhibitor of caveolin pathway) or chlorpromazine (inhibitor of clathrin pathway) for one hour at 10 μg/ml. […] Extracts were assayed by anti-GFP ELISA.

Molecule: QCKMSLNGQRGECW [BP2n1s]
Apoptotic Activity (HEK 293 cells [1]): <5 arbitrary caspase-3 units

Metal-binding [2]: 92 percentage
Molecule: CRPSKGRKRGFC [MBD4]
Apoptotic Activity (HEK 293 cells [1]): 10-15 arbitrary caspase-3 units

Molecule: CRPSKGRKRGFCW [MBD12]
Apoptotic Activity (HEK 293 cells [1]): 10-40 arbitrary caspase-3 units

Molecule: DKKGFYKKKQCRPSKGRKRGFCW [MBD1]
pro-apoptotic activity (HEK293 cells [3]; FIG. 4A/4B): dramatic lowering of pro-apoptotic activity | imidazole concentration that elutes the peptide [4]: 60 mM | Apoptotic Activity (HEK 293 cells [1]): 10-15 arbitrary caspase-3 units | Metal-binding [2]: 22 percentage

binding to the column [4]: binds metal more tightly | imidazole concentration necessary to elute the peptide [4]: 1 M | Metal-binding [2]: 66 percentage
Molecule: QCRPSKGRKRGFCW [MBD2]
pro-apoptotic activity relative to intact IGFBP-3 or a longer peptide (HEK293 cells [3]; on a weight basis, FIG. 4B): 3-4 × | Apoptotic Activity (HEK 293 cells [1]): 100 arbitrary caspase-3 units | co-apoptotic activity with Fibrinogen (HEK293 cells [5]; Fibrinogen 200 ng/ml): 67.5 arbitrary caspase-3 units | co-apoptotic activity with Fibronectin (HEK293 cells [5]; Fibronectin 200 ng/ml): 98.3 arbitrary caspase-3 units | co-apoptotic activity, plasma protein none (HEK293 cells [5]; no plasma protein): 100.0 arbitrary caspase-3 units | IGF dependence of pro-apoptotic activity (HEK 293 cells [6]; 0.3 ng/ml paclitaxel, alone or with Y60L-IGF-I, FIG. 11C): independent of the presence of IGF | pro-apoptotic activity under stressed conditions (HEK 293 cells [6]; low serum or paclitaxel, 50 ng/ml, FIGS. 11A, 11B): nearly identical | pro-apoptotic activity with anti-adhesion protein antibodies (HEK 293 cells [7]): inhibited by antibodies against integrins and integrin-associated proteins | pro-apoptotic activity in cells with blocked pathways [8]: inhibited in cells in which the PI3K/ILK kinase signal transduction pathway is blocked, but not in cells where the MAPK signal transduction pathway is blocked | sensitization to doxorubicin (MA16C cells): sensitizes MA16C mammary adenocarcinoma cells to low doses of doxorubicin | sensitization to paclitaxel (MDA-MB-231 cells): sensitizes MDA-MB-231 cells to low doses of paclitaxel

Metal-binding [2]: 11 percentage
Molecule: QCRPSKGRKRGFCWNGR [MBD7]
Apoptotic Activity (HEK 293 cells [1]): 89 arbitrary caspase-3 units

Molecule: COc1cccc2c1C(=O)c1c(O)c3c(c(O)c1C2=O)C[C@@](O)(C(=O)CO)C[C@@H]3O[C@H]1C[C@H](N)[C@H](O)[C@H](C)O1 [DOX, doxorubicin, reference compound]
Tumor Weight ([9]; IGFBP-3 4 mg/kg/day sc 21 days, doxorubicin 2 mg/kg iv days 1 and 8): 1966 + 677 mg | Lung Metastases ([9]; animals with metastases/animals): 0/12 | Caspase-3 ([9]; tumors removed at day 21): 7.88 ± 6.27

Molecule: QCRPSKGRKRGFC [MBD13]
Apoptotic Activity (HEK 293 cells [1]): 10-40 arbitrary caspase-3 units

Molecule: KKGFYKKKQCRPSKGRKRGFCWAVDKYG (cysteine pairing not given here; also: biotinylated, position not given here) [MBD21, tested biotinylated with streptavidin-HRP]
nuclear mobilization of streptavidin-HRP conjugate compared with MBD9 (HEK293 cells [10]): far more efficiently

Molecule: QCRPSKGRKRGFCWAVDKYG (cysteine pairing not given here; also: biotinylated, position not given here) [MBD20, tested biotinylated with streptavidin-HRP]
nuclear mobilization of streptavidin-HRP conjugate compared with MBD9 (HEK293 cells [10]): far more efficiently

Molecule: KKEKDIMKKTIQCRPSKGRKRGFCWNGR [MBD10]
Apoptotic Activity (HEK 293 cells [1]): 127 arbitrary caspase-3 units

Molecule: CN(C)CCCN1c2ccccc2Sc2ccc(Cl)cc21 [chlorpromazine]
effect on nuclear translocation of MBD peptides (HEK293 cells [11]): inhibit nuclear translocation of MBD peptides

Metal-binding [2]: 100 percentage
Molecule: QCRPSEGGKRGFCW [MBD3]
Apoptotic Activity (HEK 293 cells [1]): <5 arbitrary caspase-3 units

Metal-binding [2]: 95 percentage
Molecule: GFYKKKQCRPSKGRKRGFCW [MBD5]
Apoptotic Activity (HEK 293 cells [1]): 10-15 arbitrary caspase-3 units

Metal-binding [2]: 28 percentage
Molecule: QCKPSRGRKRGICW [BP5n1s]
Apoptotic Activity (HEK 293 cells [1]): <5 arbitrary caspase-3 units

Metal-binding [2]: 45 percentage
Molecule: KKGFYKKKQCRPSKGRKRGFCWNGRK [MBD9]
Apoptotic Activity (HEK 293 cells [1]): 149 arbitrary caspase-3 units

Molecule: C[C@@H]1[C@H](O)[C@@H](C)/C=C/C=C/CC/C=C/C=C/C=C/C=C/C(O[C@H]2O[C@H](C)[C@@H](O)[C@H](N)[C@@H]2O)CC2O[C@](O)(CC(O)C(O)CCC(O)CC(O)CC(O)CC(=O)O[C@H]1C)CC(O)C2C(=O)O (some centres unmarked) [nystatin]
effect on nuclear translocation of MBD peptides (HEK293 cells [11]): inhibit nuclear translocation of MBD peptides
